# Measured values reported in ChEMBL document CHEMBL1129308, “Design and synthesis of 2-naphthoate esters as selective dopamine D4 antagonists” (J Med Chem, 1996).
# Legend:
# [1] = target: Dopamine receptors; D2 & D4 (Homo sapiens) (UniProt P14416+P21917); test: Selectivity ratio for binding affinity between D4 and D2 receptor; format: protein assay
# D(2) dopamine receptor = D(2) dopamine receptor (Homo sapiens, UniProt P14416); test: Binding affinity against cloned human Dopamine receptor D2 (long) using [125I]iodosulpiride as radioligand
# Sequence of D(2) dopamine receptor (P14416 whole entry): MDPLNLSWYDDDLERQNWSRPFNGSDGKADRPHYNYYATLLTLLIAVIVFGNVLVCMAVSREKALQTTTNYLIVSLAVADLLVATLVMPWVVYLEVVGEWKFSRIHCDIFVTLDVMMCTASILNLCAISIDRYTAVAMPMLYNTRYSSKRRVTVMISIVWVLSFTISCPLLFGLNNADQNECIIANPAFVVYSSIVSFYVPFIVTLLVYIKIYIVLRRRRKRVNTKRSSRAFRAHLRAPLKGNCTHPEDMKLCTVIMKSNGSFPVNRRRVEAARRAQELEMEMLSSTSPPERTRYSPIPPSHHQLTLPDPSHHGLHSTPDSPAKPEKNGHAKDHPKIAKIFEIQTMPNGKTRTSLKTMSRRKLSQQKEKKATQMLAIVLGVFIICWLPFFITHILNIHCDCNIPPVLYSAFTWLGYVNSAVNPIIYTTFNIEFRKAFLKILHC
# D(4) dopamine receptor = target: T1, D(4) dopamine receptor (Homo sapiens, UniProt P21917); test: Binding affinity against cloned human Dopamine receptor D4 using [3H]nemonapride as radioligand
# T1 sequence (P21917 whole entry): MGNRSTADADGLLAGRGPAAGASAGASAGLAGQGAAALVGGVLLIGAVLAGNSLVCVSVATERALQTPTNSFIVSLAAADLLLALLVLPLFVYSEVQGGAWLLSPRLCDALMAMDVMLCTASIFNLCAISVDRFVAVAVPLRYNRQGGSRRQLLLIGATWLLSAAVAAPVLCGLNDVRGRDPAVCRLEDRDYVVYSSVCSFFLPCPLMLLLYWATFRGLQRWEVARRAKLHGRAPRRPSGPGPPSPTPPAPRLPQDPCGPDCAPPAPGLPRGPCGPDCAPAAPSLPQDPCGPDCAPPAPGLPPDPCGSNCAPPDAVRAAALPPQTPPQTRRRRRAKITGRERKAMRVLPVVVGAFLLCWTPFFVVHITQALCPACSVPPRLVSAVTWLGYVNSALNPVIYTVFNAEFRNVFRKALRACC
# Sequence of Dopamine receptors; D2 & D4 (Homo sapiens) (P14416 whole entry, looked up, one chain of several): as the sequence (P14416 whole entry) above
Compound,Selectivity [1],Ki (D(2) dopamine receptor) [µM],Ki (D(4) dopamine receptor) [µM]
COc1cc2ccccc2cc1C(=O)CCC1CCN(Cc2ccccc2)CC1,12,0.398,0.0316
COc1cc2ccccc2cc1C(=O)NCC1CCN(Cc2ccccc2)CC1,6,0.126,0.02
O=C(OCC1CCN(Cc2ccccc2)CC1)c1ccc(Cl)cc1,80,2,0.0251
COc1cc2ccccc2cc1CC(=O)CC1CCN(Cc2ccccc2)CC1,6,1.26,0.2
COc1cc2ccccc2cc1OC(=O)CC1CCN(Cc2ccccc2)CC1,1260,7.94,0.00631
COc1cc2ccccc2cc1COCC1CCN(Cc2ccccc2)CC1,30,1,0.0316
COc1cc2ccccc2cc1C(=O)OCC1CCN(Cc2ccccc2)CC1,630,3.16,0.00501
COc1cc2ccccc2cc1OCCC1CCN(Cc2ccccc2)CC1,60,1.58,0.0251
COc1cc2ccccc2cc1C(=O)OCC1CCN(Cc2ccccc2)C1 (stereo not given),500,10,0.02
COc1cc2ccccc2cc1C(=O)NC1CCN(Cc2ccccc2)C1 (stereo not given),10,0.0398,0.00398
